# Source: patent US9096548B2, “Pyrazine amide compounds” (Boehringer Ingelheim International GmbH, priority 2013, dated 2015)
# Counter-ions that a name gives are not always drawn.
# Target: T1, ENaC (Epithelial Sodium Channel) (Mus musculus, UniProt Q61180+Q9WU38+Q9WU39)
# T1 construct: Mouse kidney M−1 cells were cultivated in DMEM; endogenous in cells; host or cells: Mouse kidney M-1 cells, cultivated with dexamethasone on transwell filters
# T1 sequence (Q61180 1-699): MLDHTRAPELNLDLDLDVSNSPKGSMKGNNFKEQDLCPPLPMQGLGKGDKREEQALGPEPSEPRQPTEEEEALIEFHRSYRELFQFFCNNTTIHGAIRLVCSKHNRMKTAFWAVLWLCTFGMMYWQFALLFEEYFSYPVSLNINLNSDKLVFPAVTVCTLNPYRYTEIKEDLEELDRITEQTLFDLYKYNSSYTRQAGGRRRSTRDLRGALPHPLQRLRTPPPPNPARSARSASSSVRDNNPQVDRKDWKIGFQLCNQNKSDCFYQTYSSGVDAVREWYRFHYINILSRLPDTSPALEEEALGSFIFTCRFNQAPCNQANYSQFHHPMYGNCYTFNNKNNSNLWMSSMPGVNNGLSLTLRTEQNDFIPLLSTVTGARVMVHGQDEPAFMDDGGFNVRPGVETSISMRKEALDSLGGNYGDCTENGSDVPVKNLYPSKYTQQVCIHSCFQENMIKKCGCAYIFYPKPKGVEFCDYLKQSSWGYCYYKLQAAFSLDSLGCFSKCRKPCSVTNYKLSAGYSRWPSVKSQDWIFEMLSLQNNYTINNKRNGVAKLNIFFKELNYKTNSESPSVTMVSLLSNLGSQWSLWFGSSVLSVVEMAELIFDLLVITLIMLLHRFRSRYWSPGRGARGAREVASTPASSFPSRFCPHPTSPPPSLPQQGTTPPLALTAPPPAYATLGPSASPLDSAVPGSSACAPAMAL
# T1 sequence (Q9WU38 1-638): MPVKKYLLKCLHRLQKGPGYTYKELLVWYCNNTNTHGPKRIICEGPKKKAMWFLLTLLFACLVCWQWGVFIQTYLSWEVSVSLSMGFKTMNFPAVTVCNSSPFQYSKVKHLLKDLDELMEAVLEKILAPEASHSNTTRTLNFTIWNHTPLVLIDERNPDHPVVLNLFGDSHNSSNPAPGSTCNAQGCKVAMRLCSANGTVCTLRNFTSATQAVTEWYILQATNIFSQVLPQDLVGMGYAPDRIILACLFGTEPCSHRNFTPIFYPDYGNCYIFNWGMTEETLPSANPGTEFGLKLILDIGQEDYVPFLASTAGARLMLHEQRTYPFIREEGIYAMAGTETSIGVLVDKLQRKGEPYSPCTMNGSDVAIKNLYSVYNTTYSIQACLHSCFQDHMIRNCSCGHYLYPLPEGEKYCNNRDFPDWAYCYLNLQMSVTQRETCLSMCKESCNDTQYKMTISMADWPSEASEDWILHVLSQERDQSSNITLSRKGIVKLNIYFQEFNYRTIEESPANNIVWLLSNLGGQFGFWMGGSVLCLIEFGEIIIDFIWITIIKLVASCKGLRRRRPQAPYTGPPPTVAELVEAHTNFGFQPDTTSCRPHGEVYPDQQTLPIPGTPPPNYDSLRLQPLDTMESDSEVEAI
# T1 sequence (Q9WU39 1-655): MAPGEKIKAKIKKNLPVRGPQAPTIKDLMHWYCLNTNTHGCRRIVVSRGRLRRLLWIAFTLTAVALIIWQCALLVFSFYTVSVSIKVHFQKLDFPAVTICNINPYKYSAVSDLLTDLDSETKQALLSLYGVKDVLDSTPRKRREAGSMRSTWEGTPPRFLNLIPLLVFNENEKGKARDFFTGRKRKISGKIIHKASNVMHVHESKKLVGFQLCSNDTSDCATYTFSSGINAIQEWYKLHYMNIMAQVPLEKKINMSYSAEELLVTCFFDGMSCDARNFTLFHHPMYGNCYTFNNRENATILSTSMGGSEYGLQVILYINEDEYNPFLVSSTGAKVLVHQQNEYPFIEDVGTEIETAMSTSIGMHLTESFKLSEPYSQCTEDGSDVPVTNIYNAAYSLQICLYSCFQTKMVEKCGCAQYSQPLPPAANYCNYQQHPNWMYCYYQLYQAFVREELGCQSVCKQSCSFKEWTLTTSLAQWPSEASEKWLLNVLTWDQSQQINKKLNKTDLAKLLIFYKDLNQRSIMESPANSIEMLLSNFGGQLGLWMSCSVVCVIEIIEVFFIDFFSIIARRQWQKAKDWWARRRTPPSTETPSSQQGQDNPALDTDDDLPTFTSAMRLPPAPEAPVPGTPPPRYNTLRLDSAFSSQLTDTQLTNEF
# Assay: Ussing Chamber assay (short circuit current, amiloride sensitive I_SC)
# Type: cell-based
# Details: not given
# Description: The IC50 values of the example compounds given above were determined in the Ussing Chamber assay.
# Ussing Chamber: Mouse kidney M−1 cells were cultivated in DMEM containing 5% FCS and 5 μM dexamethasone for 10 to 12 days on polyester transwell filters. Filters were inserted into a teflon-coated well-plate which fit into the ussing chamber system. Prior to measurement the medium of M−1 cells was replaced with Caco-2 transport buffer (Invitrogen, Germany). During measurements, the Ussing chamber temperature was kept at 37° C. Short circuit currents (I_sc) were measured in the voltage-clamp mode with the software package Lab View for data acquisition and analysis. The transepithelial electrical resistance (TEER) was determined by the application of voltage steps of ±5 mV every 5 sec. Compounds were administered at a final concentration of 3 μM or at increasing concentrations (1-3-10 μM) to the apical solution. At the end of each experiment the amiloride sensitive I_SC was measured by adding 3 μM amiloride to the apical compartment. Results are expressed as inhibition in percent of the amiloride effect or as IC50.
row,SMILES,IC50
1,"Nc1nc(N)c(C(=O)NC2CCC[N+](CCCc3ccc(O)cc3)(CCCc3ccc(O)cc3)C2)nc1Cl (stereo not shown) [Example 6.15, 3-[(3,5-Diamino-6-chloro-pyrazine-2-carbonyl)-amino]-1,1-bis-[3-(4-hydroxy-phenyl)propyl]-piperidinium trifluoroacetate]",13 nM

# Same assay, conditions: Ussing chamber, mouse kidney M-1 cells, short circuit current, compound added to the apical solution; read-out: IC50
row,IC50,SMILES
1,42 nM,COCCN(C)C(=O)COc1ccc(CCC[N+]2(CCCc3ccc(OCC(=O)N(C)CCOC)cc3)CCC[C@H](NC(=O)c3nc(Cl)c(N)nc3N)C2)cc1 [Example 6.16]
2,21 nM,CN(Cc1ccncc1)C(=O)COc1ccc(CCC[N+]2(CCCc3ccc(OCC(=O)N(C)Cc4ccncc4)cc3)CCC[C@H](NC(=O)c3nc(Cl)c(N)nc3N)C2)cc1 [Example 6.17]
3,13 nM,Nc1nc(N)c(C(=O)N[C@H]2CCC[N+](CCCc3ccc(OCC(=O)NCCCO)cc3)(CCCc3ccc(OCC(=O)NCCCO)cc3)C2)nc1Cl [Example 6.18]
4,18 nM,CN(Cc1ccccn1)C(=O)COc1ccc(CCC[N+]2(CCCc3ccc(OCC(=O)N(C)Cc4ccccn4)cc3)CCC[C@H](NC(=O)c3nc(Cl)c(N)nc3N)C2)cc1 [Example 6.22]
5,70 nM,CC(O)CN(C)C(=O)COc1ccc(CCC[N+]2(CCCc3ccc(OCC(=O)N(C)CC(C)O)cc3)CCC[C@H](NC(=O)c3nc(Cl)c(N)nc3N)C2)cc1 (stereo partly shown) [Example 6.26]
6,17 nM,CN(Cc1cccnc1)C(=O)COc1ccc(CCC[N+]2(CCCc3ccc(OCC(=O)N(C)Cc4cccnc4)cc3)CCC[C@H](NC(=O)c3nc(Cl)c(N)nc3N)C2)cc1 [Example 6.27]
7,41 nM,CN(C)C(=O)CNC(=O)COc1ccc(CCC[N+]2(CCCc3ccc(OCC(=O)NCC(=O)N(C)C)cc3)CCC[C@H](NC(=O)c3nc(Cl)c(N)nc3N)C2)cc1 [Example 6.28]
8,105 nM,CN(CCC#N)C(=O)COc1ccc(CCC[N+]2(CCCc3ccc(OCC(=O)N(C)CCC#N)cc3)CCC[C@H](NC(=O)c3nc(Cl)c(N)nc3N)C2)cc1 [Example 6.29]
9,18 nM,N#CCNC(=O)COc1ccc(CCC[N+]2(CCCc3ccc(OCC(=O)NCC#N)cc3)CCC[C@H](NC(=O)c3nc(Cl)c(N)nc3N)C2)cc1 [Example 6.31]
10,232 nM,CN(C)C(=O)CN(C)C(=O)COc1ccc(CCC[N+]2(CCCc3ccc(OCC(=O)N(C)CC(=O)N(C)C)cc3)CCC[C@H](NC(=O)c3nc(Cl)c(N)nc3N)C2)cc1 [Example 6.32]
11,44 nM,COCCCN(C)C(=O)COc1ccc(CCC[N+]2(CCCc3ccc(OCC(=O)N(C)CCCOC)cc3)CCC[C@H](NC(=O)c3nc(Cl)c(N)nc3N)C2)cc1 [Example 6.34]
12,45 nM,Nc1nc(N)c(C(=O)N[C@H]2CCC[N+](CCCc3ccc(OCC(=O)NCCO)cc3)(CCCc3ccc(OCC(=O)NCCO)cc3)C2)nc1Cl [Example 6.38]

# Second part, the compound before the results:
row,SMILES,IC50
1,Nc1nc(N)c(C(=O)N[C@H]2CCC[N+](CCCc3ccc(OCC(=O)NCC(O)CO)cc3)(CCCc3ccc(OCC(=O)NCC(O)CO)cc3)C2)nc1Cl (stereo partly shown) [Example 6.19],30 nM
2,Nc1nc(N)c(C(=O)N[C@H]2CCC[N+](CCCc3ccc(OCC(=O)NC(CO)CO)cc3)(CCCc3ccc(OCC(=O)NC(CO)CO)cc3)C2)nc1Cl [Example 6.20],46 nM
3,COCCN(CCOC)C(=O)COc1ccc(CCC[N+]2(CCCc3ccc(OCC(=O)N(CCOC)CCOC)cc3)CCC[C@H](NC(=O)c3nc(Cl)c(N)nc3N)C2)cc1 [Example 6.21],23 nM
4,Nc1nc(N)c(C(=O)N[C@H]2CCC[N+](CCCc3ccc(OCC(=O)NC4CCS(=O)(=O)C4)cc3)(CCCc3ccc(OCC(=O)NC4CCS(=O)(=O)C4)cc3)C2)nc1Cl (stereo partly shown) [Example 6.23],35 nM
5,Nc1nc(N)c(C(=O)N[C@H]2CCC[N+](CCCc3ccc(OCC(=O)N4CCS(=O)(=O)CC4)cc3)(CCCc3ccc(OCC(=O)N4CCS(=O)(=O)CC4)cc3)C2)nc1Cl [Example 6.24],47 nM
6,Nc1nc(N)c(C(=O)N[C@H]2CCC[N+](CCCc3ccc(OCC(=O)NCCCCO)cc3)(CCCc3ccc(OCC(=O)NCCCCO)cc3)C2)nc1Cl [Example 6.25],14 nM
7,Nc1nc(N)c(C(=O)N[C@H]2CCC[N+](CCCc3ccc(OCC(=O)N4CC[S+]([O-])CC4)cc3)(CCCc3ccc(OCC(=O)N4CC[S+]([O-])CC4)cc3)C2)nc1Cl [Example 6.30],209 nM
8,Cn1ccnc1CNC(=O)COc1ccc(CCC[N+]2(CCCc3ccc(OCC(=O)NCc4nccn4C)cc3)CCC[C@H](NC(=O)c3nc(Cl)c(N)nc3N)C2)cc1 [Example 6.33],21 nM
9,Nc1nc(N)c(C(=O)N[C@H]2CCC[N+](CCCc3ccc(OCC(=O)NCCN4CCCC4=O)cc3)(CCCc3ccc(OCC(=O)NCCN4CCCC4=O)cc3)C2)nc1Cl [Example 6.35],16 nM
10,Nc1nc(N)c(C(=O)N[C@H]2CCC[N+](CCCc3ccc(OCC(=O)N4CCC(O)(CO)CC4)cc3)(CCCc3ccc(OCC(=O)N4CCC(O)(CO)CC4)cc3)C2)nc1Cl [Example 6.36],67 nM
11,CS(=O)(=O)CCNC(=O)COc1ccc(CCC[N+]2(CCCc3ccc(OCC(=O)NCCS(C)(=O)=O)cc3)CCC[C@H](NC(=O)c3nc(Cl)c(N)nc3N)C2)cc1 [Example 6.37],28 nM
12,Nc1nc(N)c(C(=O)N[C@H]2CCC[N+](CCCc3ccc(OCC(=O)NC(CO)c4cccnc4)cc3)(CCCc3ccc(OCC(=O)NC(CO)c4cccnc4)cc3)C2)nc1Cl (stereo partly shown) [Example 6.39],11 nM
13,Cn1cnc(CNC(=O)COc2ccc(CCC[N+]3(CCCc4ccc(OCC(=O)NCc5cn(C)cn5)cc4)CCC[C@H](NC(=O)c4nc(Cl)c(N)nc4N)C3)cc2)c1 [Example 6.40],21 nM
14,Cn1cncc1CNC(=O)COc1ccc(CCC[N+]2(CCCc3ccc(OCC(=O)NCc4cncn4C)cc3)CCC[C@H](NC(=O)c3nc(Cl)c(N)nc3N)C2)cc1 [Example 6.41],18 nM
15,Nc1nc(N)c(C(=O)N[C@H]2CCC[N+](CCCc3ccc(OCC(=O)OCC4COCCN4)cc3)(CCCc3ccc(OCC(=O)OCC4COCCN4)cc3)C2)nc1Cl (stereo partly shown) [Example 6.42],112 nM
16,CS(=O)(=O)CCCNC(=O)COc1ccc(CCC[N+]2(CCCc3ccc(OCC(=O)NCCCS(C)(=O)=O)cc3)CCC[C@H](NC(=O)c3nc(Cl)c(N)nc3N)C2)cc1 [Example 6.43],64 nM
17,Nc1nc(N)c(C(=O)N[C@H]2CCC[N+](CCCc3ccc(OCC(=O)N4CCn5ccnc5C4)cc3)(CCCc3ccc(OCC(=O)N4CCn5ccnc5C4)cc3)C2)nc1Cl [Example 6.44],88 nM
18,C[S+]([O-])CCNC(=O)COc1ccc(CCC[N+]2(CCCc3ccc(OCC(=O)NCC[S+](C)[O-])cc3)CCC[C@H](NC(=O)c3nc(Cl)c(N)nc3N)C2)cc1 (stereo partly shown) [Example 6.45],39 nM
